Source: patent US6339042B1, “Herbicidal N-cyclohexadienyl heteroaryloxyacetamides” (American Cyanamid Co., priority 1999, dated 2002)

Columns and labels:
Conditions in all cases: three weeks after treatment
Galium aparine [1] = test: Pre-emergence herbicidal evaluation, GALAP; type: in vivo
From the text: (§1) The treated pots are then placed on greenhouse benches, watered and cared for in accordance with conventional greenhouse procedures.

Glycine max [2] = test: Pre-emergence herbicidal evaluation, GLXMA; type: in vivo
From the text: as §1

Echinochloa crus-galli [3] = test: Post-emergence herbicidal evaluation, ECHCG
Experimental: (§2) The compounds of the invention are tested for pre- and post-emergence herbicidal activity.
(§3) Each pot is examined three weeks after treatment and phytotoxicity is assessed according to the rating system set forth below.
(§4) These acetone solutions are diluted with water and the resulting formulations applied at dosage levels equivalent of about 0.4 to 0.1 kg per hectare of test compound per pot. After spraying the plants are placed on greenhouse benches and are cared for in the usual manner, commensurate with conventional greenhouse practices.

Oryza sativum [4] = test: Pre-emergence herbicidal evaluation, ORYSA; type: in vivo
From the text: as §1

Triticum aestivum [5] = test: Pre-emergence herbicidal evaluation, TRZAW; type: in vivo
From the text: as §1

Alopecurus myosuroides [6] = test: Post-emergence herbicidal evaluation, ALOMY
Galium aparine [7] = test: Post-emergence herbicidal evaluation, GALAP
Experimental: as §2, §3, §4

Alopecurus myosuroides [8] = test: Pre-emergence herbicidal evaluation, ALOMY; type: in vivo
From the text: as §1

Apera spica venti [9] = test: Pre-emergence herbicidal evaluation, APESV; type: in vivo
From the text: as §1

Oryza sativum [10] = test: Post-emergence herbicidal evaluation, ORYSA
Amaranthus tuberculatus [11] = test: Pre-emergence herbicidal evaluation, AMATA; type: in vivo
From the text: as §1

Triticum aestivum [12] = test: Post-emergence herbicidal evaluation, TRZAW
Glycine max [13] = test: Post-emergence herbicidal evaluation, GLXMA
Hordeum vulgare [14] = test: Post-emergence herbicidal evaluation, HORVW
Experimental: as §3, §4

Zea mays [15] = test: Post-emergence herbicidal evaluation, ZEAMX
Echinochloa crus-galli [16] = test: Pre-emergence herbicidal evaluation, ECHCG; type: in vivo
From the text: as §1

Setaria viridis [17] = test: Post-emergence herbicidal evaluation, SETVI
Experimental: as §2, §3, §4

Setaria viridis [18] = test: Pre-emergence herbicidal evaluation, SETVI; type: in vivo
From the text: as §1

Hordeum vulgare [19] = test: Pre-emergence herbicidal evaluation, HORVW; type: in vivo
From the text: as §1

Apera spica venti [20] = test: Post-emergence herbicidal evaluation, APESV
Experimental: as §2, §3, §4

Zea mays [21] = test: Pre-emergence herbicidal evaluation, ZEAMX; type: in vivo
From the text: as §1

Amaranthus tuberculatus [22] = test: Post-emergence herbicidal evaluation, AMATA; type: in vivo
Lolium perenne [23] = test: Post-emergence herbicidal evaluation, LOLPE
Lolium perenne [24] = test: Pre-emergence herbicidal evaluation, LOLPE; type: in vivo
From the text: as §1

## CCN(C(=O)COc1nc2ccccc2o1)C1=CC(C)(C)CC(C)=C1 [Example 2]
Galium aparine [1]; 0.100 kg/ha
  phytotoxicity rating GALAP: 0 (0 - No effect)
Galium aparine [1]; 0.200 kg/ha
  phytotoxicity rating GALAP: 0 (0 - No effect)
Galium aparine [1]; 0.400 kg/ha
  phytotoxicity rating GALAP: 0 (0 - No effect)
Galium aparine [1]; 0.800 kg/ha
  phytotoxicity rating GALAP: 0 (0 - No effect)
Glycine max [2]; 0.100 kg/ha
  phytotoxicity rating GLXMA: 0 (0 - No effect)
Glycine max [2]; 0.200 kg/ha
  phytotoxicity rating GLXMA: 0 (0 - No effect)
Glycine max [2]; 0.400 kg/ha
  phytotoxicity rating GLXMA: 0 (0 - No effect)
Glycine max [2]; 0.800 kg/ha
  phytotoxicity rating GLXMA: 0 (0 - No effect)
Echinochloa crus-galli [3]; 0.100 kg/ha
  phytotoxicity rating ECHCG: 1 (1 - Trace effect)
Echinochloa crus-galli [3]; 0.200 kg/ha
  phytotoxicity rating ECHCG: 2 (2 - Slight effect)
Echinochloa crus-galli [3]; 0.400 kg/ha
  phytotoxicity rating ECHCG: 8 (8 - Approaching complete kill)
Oryza sativum [4]; 0.100 kg/ha
  phytotoxicity rating ORYSA: 0 (0 - No effect)
Oryza sativum [4]; 0.200 kg/ha
  phytotoxicity rating ORYSA: 0 (0 - No effect)
Oryza sativum [4]; 0.400 kg/ha
  phytotoxicity rating ORYSA: 0 (0 - No effect)
Oryza sativum [4]; 0.800 kg/ha
  phytotoxicity rating ORYSA: 2 (2 - Slight effect)
Triticum aestivum [5]; 0.100 kg/ha
  phytotoxicity rating TRZAW: 0 (0 - No effect)
Triticum aestivum [5]; 0.200 kg/ha
  phytotoxicity rating TRZAW: 0 (0 - No effect)
Triticum aestivum [5]; 0.400 kg/ha
  phytotoxicity rating TRZAW: 2 (2 - Slight effect)
Triticum aestivum [5]; 0.800 kg/ha
  phytotoxicity rating TRZAW: 2 (2 - Slight effect)
Alopecurus myosuroides [6]; 0.100 kg/ha
  phytotoxicity rating ALOMY: 0 (0 - No effect)
Alopecurus myosuroides [6]; 0.200 kg/ha
  phytotoxicity rating ALOMY: 4 (4 - Injury)
Alopecurus myosuroides [6]; 0.400 kg/ha
  phytotoxicity rating ALOMY: 7 (7 - Good herbicidal effect)
Galium aparine [7]; 0.100 kg/ha
  phytotoxicity rating GALAP: 0 (0 - No effect)
Galium aparine [7]; 0.200 kg/ha
  phytotoxicity rating GALAP: 2 (2 - Slight effect)
Galium aparine [7]; 0.400 kg/ha
  phytotoxicity rating GALAP: 3 (3 - Moderate effect)
Alopecurus myosuroides [8]; 0.100 kg/ha
  phytotoxicity rating ALOMY: 1 (1 - Trace effect)
Alopecurus myosuroides [8]; 0.200 kg/ha
  phytotoxicity rating ALOMY: 5 (5 - Definite injury)
Alopecurus myosuroides [8]; 0.400 kg/ha
  phytotoxicity rating ALOMY: 6 (6 - Herbicidal effect)
Alopecurus myosuroides [8]; 0.800 kg/ha
  phytotoxicity rating ALOMY: 6 (6 - Herbicidal effect)
Apera spica venti [9]; 0.100 kg/ha
  phytotoxicity rating APESV: 1 (1 - Trace effect)
Apera spica venti [9]; 0.200 kg/ha
  phytotoxicity rating APESV: 6 (6 - Herbicidal effect)
Apera spica venti [9]; 0.400 kg/ha
  phytotoxicity rating APESV: 9 (9 - Complete kill)
Apera spica venti [9]; 0.800 kg/ha
  phytotoxicity rating APESV: 9 (9 - Complete kill)
Oryza sativum [10]; 0.100 kg/ha
  phytotoxicity rating ORYSA: 0 (0 - No effect)
Oryza sativum [10]; 0.200 kg/ha
  phytotoxicity rating ORYSA: 0 (0 - No effect)
Oryza sativum [10]; 0.400 kg/ha
  phytotoxicity rating ORYSA: 1 (1 - Trace effect)
Amaranthus tuberculatus [11]; 0.100 kg/ha
  phytotoxicity rating AMATA: 2 (2 - Slight effect)
Amaranthus tuberculatus [11]; 0.200 kg/ha
  phytotoxicity rating AMATA: 6 (6 - Herbicidal effect)
Amaranthus tuberculatus [11]; 0.400 kg/ha
  phytotoxicity rating AMATA: 8 (8 - Approaching complete kill)
Amaranthus tuberculatus [11]; 0.800 kg/ha
  phytotoxicity rating AMATA: 8 (8 - Approaching complete kill)
Triticum aestivum [12]; 0.100 kg/ha
  phytotoxicity rating TRZAW: 0 (0 - No effect)
Triticum aestivum [12]; 0.200 kg/ha
  phytotoxicity rating TRZAW: 0 (0 - No effect)
Triticum aestivum [12]; 0.400 kg/ha
  phytotoxicity rating TRZAW: 1 (1 - Trace effect)
Glycine max [13]; 0.100 kg/ha
  phytotoxicity rating GLXMA: 5 (5 - Definite injury)
Glycine max [13]; 0.200 kg/ha
  phytotoxicity rating GLXMA: 7 (7 - Good herbicidal effect)
Glycine max [13]; 0.400 kg/ha
  phytotoxicity rating GLXMA: 7 (7 - Good herbicidal effect)
Hordeum vulgare [14]; 0.100 kg/ha
  phytotoxicity rating HORVW: 1 (1 - Trace effect)
Hordeum vulgare [14]; 0.200 kg/ha
  phytotoxicity rating HORVW: 2 (2 - Slight effect)
Hordeum vulgare [14]; 0.400 kg/ha
  phytotoxicity rating HORVW: 2 (2 - Slight effect)
Zea mays [15]; 0.100 kg/ha
  phytotoxicity rating ZEAMX: 0 (0 - No effect)
Zea mays [15]; 0.200 kg/ha
  phytotoxicity rating ZEAMX: 0 (0 - No effect)
Zea mays [15]; 0.400 kg/ha
  phytotoxicity rating ZEAMX: 0 (0 - No effect)
Echinochloa crus-galli [16]; 0.100 kg/ha
  phytotoxicity rating ECHCG: 3 (3 - Moderate effect)
Echinochloa crus-galli [16]; 0.200 kg/ha
  phytotoxicity rating ECHCG: 5 (5 - Definite injury)
Echinochloa crus-galli [16]; 0.400 kg/ha
  phytotoxicity rating ECHCG: 8 (8 - Approaching complete kill)
Echinochloa crus-galli [16]; 0.800 kg/ha
  phytotoxicity rating ECHCG: 9 (9 - Complete kill)
Setaria viridis [17]; 0.100 kg/ha
  phytotoxicity rating SETVI: 0 (0 - No effect)
Setaria viridis [17]; 0.200 kg/ha
  phytotoxicity rating SETVI: 2 (2 - Slight effect)
Setaria viridis [17]; 0.400 kg/ha
  phytotoxicity rating SETVI: 6 (6 - Herbicidal effect)
Setaria viridis [18]; 0.100 kg/ha
  phytotoxicity rating SETVI: 1 (1 - Trace effect)
Setaria viridis [18]; 0.200 kg/ha
  phytotoxicity rating SETVI: 4 (4 - Injury)
Setaria viridis [18]; 0.400 kg/ha
  phytotoxicity rating SETVI: 7 (7 - Good herbicidal effect)
Setaria viridis [18]; 0.800 kg/ha
  phytotoxicity rating SETVI: 8 (8 - Approaching complete kill)
Hordeum vulgare [19]; 0.100 kg/ha
  phytotoxicity rating HORVW: 0 (0 - No effect)
Hordeum vulgare [19]; 0.200 kg/ha
  phytotoxicity rating HORVW: 2 (2 - Slight effect)
Hordeum vulgare [19]; 0.400 kg/ha
  phytotoxicity rating HORVW: 2 (2 - Slight effect)
Hordeum vulgare [19]; 0.800 kg/ha
  phytotoxicity rating HORVW: 3 (3 - Moderate effect)
Apera spica venti [20]; 0.100 kg/ha
  phytotoxicity rating APESV: 6 (6 - Herbicidal effect)
Apera spica venti [20]; 0.200 kg/ha
  phytotoxicity rating APESV: 7 (7 - Good herbicidal effect)
Apera spica venti [20]; 0.400 kg/ha
  phytotoxicity rating APESV: 7 (7 - Good herbicidal effect)
Zea mays [21]; 0.100 kg/ha
  phytotoxicity rating ZEAMX: 0 (0 - No effect)
Zea mays [21]; 0.200 kg/ha
  phytotoxicity rating ZEAMX: 0 (0 - No effect)
Zea mays [21]; 0.400 kg/ha
  phytotoxicity rating ZEAMX: 0 (0 - No effect)
Zea mays [21]; 0.800 kg/ha
  phytotoxicity rating ZEAMX: 1 (1 - Trace effect)
Amaranthus tuberculatus [22]; 0.100 kg/ha
  phytotoxicity rating AMATA: 5 (5 - Definite injury)
Amaranthus tuberculatus [22]; 0.200 kg/ha
  phytotoxicity rating AMATA: 6 (6 - Herbicidal effect)
Amaranthus tuberculatus [22]; 0.400 kg/ha
  phytotoxicity rating AMATA: 6 (6 - Herbicidal effect)
Lolium perenne [23]; 0.100 kg/ha
  phytotoxicity rating LOLPE: 5 (5 - Definite injury)
Lolium perenne [23]; 0.200 kg/ha
  phytotoxicity rating LOLPE: 7 (7 - Good herbicidal effect)
Lolium perenne [23]; 0.400 kg/ha
  phytotoxicity rating LOLPE: 8 (8 - Approaching complete kill)
Lolium perenne [24]; 0.100 kg/ha
  phytotoxicity rating LOLPE: 0 (0 - No effect)
Lolium perenne [24]; 0.200 kg/ha
  phytotoxicity rating LOLPE: 2 (2 - Slight effect)
Lolium perenne [24]; 0.400 kg/ha
  phytotoxicity rating LOLPE: 8 (8 - Approaching complete kill)
Lolium perenne [24]; 0.800 kg/ha
  phytotoxicity rating LOLPE: 9 (9 - Complete kill)
